For series [1], the target named is SARS-CoV-2 M^pro (Severe acute respiratory syndrome coronavirus 2, UniProt P0DTD1). The series can be described thus: In vitro FRET M^pro inhibition assay. As to conditions: 50 nM M^pro; for IC50: FRET assay, inhibitor 3.125-100 μM, read-out: IC50 against M^pro enzymatic activity; for inhibition at 50 µM: initial screen at 50 μM compound, read-out: inhibitory activity against M^pro. In kind it is biochemical.

Series [2] has as its target T1, M^pro (Severe acute respiratory syndrome coronavirus 2, UniProt P0DTD1). The series is described as follows: Bio-layer interferometry binding kinetics assay. On the set-up: species or system SARS-CoV-2. As to conditions: BLI, 1:1 binding model, 30 °C; for Kd: KD = koff/kon. For orientation: In BLI a coated tip is dipped into the sample, and binding shifts an interference pattern.

Details of series [3]: method as in earlier work. Conditions: in animals; cited from earlier work.
The target in series [4] is T1, M^pro. As to conditions: at a concentration of 50 μM; cited from earlier work.

Bounds are passed on as bounds.

The values that follow come from paper PMC9963287 (Viruses, 2023).

By IC50 is commonly meant the midpoint of a concentration-inhibition curve. Broadly, the koff is the rate constant with which the complex falls apart. A low value points to slow dissociation. As a reminder, the kon is a measure of how fast the partners come together. The low end stands for slower complex formation, the high end for faster complex formation. What is called Kd is the equilibrium constant for the complex coming apart. `O=C(CC[C@@H](C(=O)Nc1cccc([N+](=O)[O-])c1)n1cnc2ccccc2c1=O)Nc1cccc([N+](=O)[O-])c1` [G1]: in series [1], the IC50 is ~20 µM and the inhibition at 50 µM was > 50%. In series [2], this compound registered a koff of 0.00325 s⁻¹, a kon of 125 M⁻¹ s⁻¹ and a Kd of 26 µM.
Turning to `CC(C)CC(NC(=O)OCc1ccccc1)C(=O)NC(CC1CCNC1=O)C(O)S(=O)(=O)O` (stereo not shown) [GC376], the side effects result in series [3] is given as “delayed adult teeth development”.
On to `COc1cccc(Nc2c(C(N)=O)cnc3c(C)cc(S(=O)(=O)c4cccc(C(=O)N(C)C)c4)cc23)c1` [GSK-256066], for which the “M^pro inhibitory activity” value in series [4] was “more than 30%”.
As to `Nc1ccc(OC(=O)CC[C@@H](C(=O)Oc2ccc(N)c([N+](=O)[O-])c2)n2cnc3ccccc3c2=O)cc1[N+](=O)[O-]` [G4], in series [1], the IC50 is ~20 µM and the inhibition at 50 µM was > 50%. Also, in series [2], the koff turned out to be 0.413 s⁻¹; the on-rate constant (kon) came out at 16200 M⁻¹ s⁻¹; the affinity, expressed as Kd, was 25.5 µM.
Consider `CC(O)(CS(=O)(=O)c1ccc(F)cc1)C(=O)Nc1ccc(C#N)c(C(F)(F)F)c1` (stereo not shown) [bicalutamide], for which the “M^pro inhibitory activity” value in series [4] is recorded as “more than 30%”.
